Values of other authors as cited in patent publication US7994210B2, “Method of treating Down Syndrome” (priority 2004, dated 2011).
Read-outs that look alike come from different tables or passages of the source.

Tests used:
[1] = molecular target: acetylcholinesterase (Homo sapiens, UniProt P22303)
[2] = system: beta-amyloid precursor protein (beta-APP)
[3] = listed as (+)9-N-phenylcarbinol eseroline

Chain of acetylcholinesterase (P22303 32-614, species assumed): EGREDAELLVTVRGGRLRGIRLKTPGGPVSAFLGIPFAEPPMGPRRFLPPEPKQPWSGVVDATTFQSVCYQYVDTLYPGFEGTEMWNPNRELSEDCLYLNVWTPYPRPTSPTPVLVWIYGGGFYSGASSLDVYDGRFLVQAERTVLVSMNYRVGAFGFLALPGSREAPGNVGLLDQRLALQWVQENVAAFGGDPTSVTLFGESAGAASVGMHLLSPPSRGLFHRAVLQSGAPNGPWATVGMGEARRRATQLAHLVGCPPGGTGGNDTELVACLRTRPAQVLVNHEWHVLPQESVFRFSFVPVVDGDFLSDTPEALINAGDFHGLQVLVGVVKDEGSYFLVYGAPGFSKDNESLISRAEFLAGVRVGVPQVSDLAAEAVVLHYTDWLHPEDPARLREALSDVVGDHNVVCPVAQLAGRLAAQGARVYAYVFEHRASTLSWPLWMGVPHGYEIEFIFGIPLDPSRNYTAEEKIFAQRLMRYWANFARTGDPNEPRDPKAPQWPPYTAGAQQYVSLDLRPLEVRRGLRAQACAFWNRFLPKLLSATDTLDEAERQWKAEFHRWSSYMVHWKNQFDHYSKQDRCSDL

Structure (SMILES): CN1CC[C@]2(C)c3cc(OC(=O)Nc4ccccc4)ccc3N(C)[C@H]12 [(+)-Phenserine, (+)9-N-phenylcarbinol eseroline]
- acetylcholinesterase inhibitor activity [1]: lacking significant acetylcholinesterase inhibitor activity
- acetylcholinesterase inhibitor activity [1, 3]: lacks anticholinesterase activity
- production/formation of β-APP [2]: reduces the production of β-APP
- production/formation of β-APP [2, 3]: inhibits β-APP production
